Our source for the IC50 and EC50 values is patent publication US20240279207A1, “SUBSTITUTED ACYL SULFONAMIDES FOR TREATING CANCER” (The Broad Institute, Inc., priority 2020, published 2024).

Assay [1] relates to ESR1 transcription in MVLN cells. Kind of assay: MVLN reporter assay: repression of ESR1 transcription (luciferase signal). The settings on record: Homo sapiens, MVLN, 24 h, luciferase signal after 24 h, read-out: MVLN reporter assay, IC50 [M] (arithmetic mean). The format is cell-based. In outline: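 To control for cell loss, Alamar Blue (2 h, 530/590 nm) precedes the 24 h luciferase measurement. The reporter is an ERE from the Xenopus vitellogenin A2 gene driving luciferase, stably transfected into ER-expressing MVLN cells; duplicate samples.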
(A reporter such as luciferase makes a cellular process visible.)

In assay [2] the target is T1, Recombinant human His-tagged Kat6a protein (amino acids 194-810) (Homo sapiens, UniProt Q92794).
T1 construct: Kat6a protein (amino acids 194-810); His
T1 sequence (Q92794 194-810): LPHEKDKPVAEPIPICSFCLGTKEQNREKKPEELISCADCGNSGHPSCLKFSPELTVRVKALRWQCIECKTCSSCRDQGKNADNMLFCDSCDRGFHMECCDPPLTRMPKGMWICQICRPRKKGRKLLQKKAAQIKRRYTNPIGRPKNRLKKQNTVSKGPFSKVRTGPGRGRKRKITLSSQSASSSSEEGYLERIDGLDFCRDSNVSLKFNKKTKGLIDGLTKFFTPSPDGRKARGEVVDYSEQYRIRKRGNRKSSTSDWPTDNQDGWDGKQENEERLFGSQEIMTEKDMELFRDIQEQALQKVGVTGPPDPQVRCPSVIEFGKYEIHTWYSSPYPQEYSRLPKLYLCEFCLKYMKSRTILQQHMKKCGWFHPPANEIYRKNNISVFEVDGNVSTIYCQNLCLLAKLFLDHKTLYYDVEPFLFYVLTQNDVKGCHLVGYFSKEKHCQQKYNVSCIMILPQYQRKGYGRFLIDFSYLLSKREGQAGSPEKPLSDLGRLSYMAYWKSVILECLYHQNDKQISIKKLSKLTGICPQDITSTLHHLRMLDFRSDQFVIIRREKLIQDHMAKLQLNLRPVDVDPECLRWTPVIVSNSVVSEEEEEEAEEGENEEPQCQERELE
Kind of assay: Kat6a activity assay (TR-FRET, acetylation of Histone-H4-derived peptide). The format is biochemical. As to conditions: 60 mins at 22° C., 220 nM H4 peptide, 600 nM Acetyl Coenzyme A, read-out: KAT6A - DPF/HAT domain IC50 [mol/l] (arithmetic mean). On the technique in general: Time-resolved FRET reads energy transfer from a long-lived donor to a nearby acceptor.

Another assay deals with MDA-MB-436 cells. Kind of assay: MDA-MB-436 proliferation assay (negative control cell line). Type of assay: cell-based. As to conditions: Homo sapiens, 144 h, Alamar Blue, read-out: MDA-MB-436 proliferation assay, EC50 [M] (arithmetic mean). An excerpt:
For compound characterization cell survival assays were routinely run in two cell lines. ZR-75-1 is a breast carcinoma cell line containing a focal KAT6A amplification and high KAT6A protein expression. Proliferation of this cell line is inhibited upon treatment with KAT6A inhibitors. As a negative control cell line MDA-MB-436 were used. These cells carry a […] deletion of the KAT6A gene, have a low KAT6A protein expression and are not growth inhibited upon treatment with KAT6A inhibitors.
For measurements cell lines were plated at the below indicated concentration per […] in 96-well plates in a humidified incubator at 37° C. and 5% CO2.
MDA-MB-436 (CLS, 300278; breast adenocarcinoma); 3000 cells per well; culture medium: DMEM/Ham's F12 (Biochrom #FG 4815) medium containing 2.5% FBS (Biochrom #S0615).
Each sample was prepared as triplicate and rim wells were excluded. Plates were incubated at 37° C. and 5% CO2 for 144 h. Cell viability was measured by adding 10 μL of Alamar Blue Reagent (Invitrogen #DAL 1100) and plates were incubated for 2 h at 37° C. and 5% CO2. Fluorescence was measured at 590 nm wavelength with a Tecan Spark or Victor X3 MTP-Reader (PerkinElmer).
On the technique in general: Alamar Blue is a resazurin reagent that responds to reducing activity.

`O=C(NS(=O)(=O)c1cccc2nsnc12)c1cc2c(F)cc(N3CCC3)cc2o1` [Example 181, 6-(Azetidin-1-yl)-N-(2,1,3-benzothiadiazole-4-sulfonyl)-4-fluoro-1-benzofuran-2-carboxamide]: the IC50 came out at 6.47e-07 M in assay [1] and 0.0895 µM in assay [2].

For the compound `COc1ccc2snnc2c1S(=O)(=O)NC(=O)c1cc2c(F)cc(N3CCC3)cc2o1` [Example 182, 6-(Azetidin-1-yl)-4-fluoro-N-(5-methoxy-1,2,3-benzothiadiazole-4-sulfonyl)-1-benzofuran-2-carboxamide], the values for the IC50 in assay [1] and in assay [2] were 8.48e-07 M and 0.0551 µM, respectively.

Regarding `COc1c(S(=O)(=O)NC(=O)c2cc3c(F)cc(N4CCC4)cc3o2)ccc(Cl)c1Cl` [Example 183, 6-(Azetidin-1-yl)-N-(3,4-dichloro-2-methoxybenzene-1-sulfonyl)-4-fluoro-1-benzofuran-2-carboxamide], the figures for the IC50 in assay [1] and in assay [2] were 9.24e-07 M and 0.0828 µM, respectively.

Take `O=C(NS(=O)(=O)c1cnn2c1OCCC2)c1cc2c(F)cc(N3CCC3)cc2o1` [Example 184, 6-(Azetidin-1-yl)-N-(6,7-dihydro-5H-pyrazolo[5,1-b][1,3]oxazine-3-sulfonyl)-4-fluoro-1-benzofuran-2-carboxamide]: the IC50 in assay [1] amounted to 5.21e-06 M; in assay [2] it was 0.294 µM.

For `CC(=O)Nc1ccc(S(=O)(=O)NC(=O)c2cc3c(F)cc(N4CCC4)cc3o2)c2ccccc12` [Example 185, N-(4-Aacetamidonaphthalene-1-sulfonyl)-6-(azetidin-1-yl)-4-fluoro-1-benzofuran-2-carboxamide], the IC50 in assay [1] was determined as 9.61e-06 M; in assay [2], 0.195 µM.

Take `O=C(NS(=O)(=O)c1cnc2ccccn12)c1cc2c(F)cc(N3CCC3)cc2o1` [Example 186, 6-(Azetidin-1-yl)-4-fluoro-N-(imidazo[1,2-a]pyridine-3-sulfonyl)-1-benzofuran-2-carboxamide]: the IC50 is 1.7e-05 M in assay [1] and 1.63 µM in assay [2].

Consider `O=C(NS(=O)(=O)c1cccc2cnccc12)c1cc2c(F)cc(N3CCC3)cc2o1` [Example 187, 6-(Azetidin-1-yl)-4-fluoro-N-(isoquinoline-5-sulfonyl)-1-benzofuran-2-carboxamide], for which the IC50 in assay [1] came out at 1.85e-05 M; in assay [2], 1.53 µM.

Consider `O=C(NS(=O)(=O)c1cccc2c(N3CCOCC3)cccc12)c1cc2c(F)cc(N3CCC3)cc2o1` [Example 188, 6-(Azetidin-1-yl)-4-fluoro-N-[5-(morpholin-4-yl)naphthalene-1-sulfonyl]-1-benzofuran-2-carboxamide], for which the IC50 amounted to 2.55e-06 M in assay [1] and 0.132 µM in assay [2].

In the case of `Cc1cc(C(C)(C)C)cc(S(=O)(=O)NC(=O)c2cc3c(F)cc(N4CCC4)cc3o2)c1C` [Example 189, 6-(Azetidin-1-yl)-N-(5-tert-butyl-2,3-dimethylbenzene-1-sulfonyl)-4-fluoro-1-benzofuran-2-carboxamide], the IC50 in assay [1] came out at 1.3e-07 M; in assay [2] it was 0.00859 µM.

As to `CC1(C)COc2ccc(S(=O)(=O)NC(=O)c3cc4c(F)cc(N5CCC5)cc4o3)cc21` [Example 190, 6-(Azetidin-1-yl)-N-(3,3-dimethyl-2,3-dihydro-1-benzofuran-5-sulfonyl)-4-fluoro-1-benzofuran-2-carboxamide], the IC50 in assay [1] worked out at 1.93e-07 M; in assay [2] it was 0.0729 µM.

With `Cc1ccc(S(=O)(=O)NC(=O)c2cc3c(F)cc(N4CCC4)cc3o2)c2ccncc12` [Example 191, 6-(Azetidin-1-yl)-4-fluoro-N-(8-methylisoquinoline-5-sulfonyl)-1-benzofuran-2-carboxamide], the IC50 amounted to 4.99e-06 M in assay [1] and 0.301 µM in assay [2].

On to `COC(=O)Nc1cccc2c(S(=O)(=O)NC(=O)c3cc4c(F)cc(N5CCC5)cc4o3)cccc12` [Example 192, Methyl (5-{[6-(azetidin-1-yl)-4-fluoro-1-benzofuran-2-carbonyl]sulfamoyl}naphthalen-1-yl)carbamate], for which the figures for the IC50 in assay [1] and in assay [2] were above 2e-05 M and 2 µM, respectively.

`Cc1cncc2cccc(S(=O)(=O)NC(=O)c3cc4c(F)cc(N5CCC5)cc4o3)c12` [Example 193, 6-(Azetidin-1-yl)-4-fluoro-N-(4-methylisoquinoline-5-sulfonyl)-1-benzofuran-2-carboxamide]: the IC50 in assay [1] was above 2e-05 M; in assay [2], 4.82 µM.

Consider `COc1ccc(-c2c(C)noc2C)cc1S(=O)(=O)NC(=O)c1cc2c(F)cc(N3CCC3)cc2o1` [Example 194, 6-(Azetidin-1-yl)-N-[5-(3,5-dimethyl-1,2-oxazol-4-yl)-2-methoxybenzene-1-sulfonyl]-4-fluoro-1-benzofuran-2-carboxamide], for which the figures for the IC50 in assay [1] and in assay [2] were 7.76e-08 M and 0.00419 µM, respectively.

As to `COc1ccc(-c2cccc(F)c2)cc1S(=O)(=O)NC(=O)c1cc2c(F)cc(N3CCC3)cc2o1` [Example 198, 6-(Azetidin-1-yl)-4-fluoro-N-(3′-fluoro-4-methoxy[1,1′-biphenyl]-3-sulfonyl)-1-benzofuran-2-carboxamide], the values for the IC50 in assay [1] and in assay [2] were 2.95e-07 M and 0.0116 µM, respectively.

`COc1ccc(-c2cnn(C)c2)cc1S(=O)(=O)NC(=O)c1cc2c(F)cc(N3CCC3)cc2o1` [Example 199, 6-(Azetidin-1-yl)-4-fluoro-N-[2-methoxy-5-(1-methyl-1H-pyrazol-4-yl)benzene-1-sulfonyl]-1-benzofuran-2-carboxamide]: the values for the IC50 in assay [1] and in assay [2] were 5.49e-07 M and 0.0323 µM, respectively.

In the case of `COc1ccc(-c2cccnc2)cc1S(=O)(=O)NC(=O)c1cc2c(F)cc(N3CCC3)cc2o1` [Example 200, 6-(Azetidin-1-yl)-4-fluoro-N-[2-methoxy-5-(pyridin-3-yl)benzene-1-sulfonyl]-1-benzofuran-2-carboxamide], the IC50 in assay [1] is 5.5e-07 M; in assay [2], 0.0341 µM.

On to `COc1ccc(N2CCN(C)CC2)cc1S(=O)(=O)NC(=O)c1cc2c(F)cc(N3CCC3)cc2o1` [Example 202, 6-(Azetidin-1-yl)-4-fluoro-N-[2-methoxy-5-(4-methylpiperazin-1-yl)benzene-1-sulfonyl]-1-benzofuran-2-carboxamide], for which the IC50 in assay [1] was found to be 1.04e-06 M; in assay [2], 0.0845 µM.

With `COc1ccc(C2=CCN(C)CC2)cc1S(=O)(=O)NC(=O)c1cc2c(F)cc(N3CCC3)cc2o1` [Example 203, 6-(Azetidin-1-yl)-4-fluoro-N-[2-methoxy-5-(1-methyl-1,2,3,6-tetrahydropyridin-4-yl)benzene-1-sulfonyl]-1-benzofuran-2-carboxamide], the figures for the IC50 in assay [1] and in assay [2] were 3.78e-06 M and 0.156 µM, respectively.

Consider `CCOc1c(F)cccc1S(=O)(=O)NC(=O)c1cc2c(F)cc(N3CCC3)cc2o1` [Example 206, 6-(azetidin-1-yl)-N-(2-ethoxy-3-fluoro-phenyl)sulfonyl-4-fluoro-benzofuran-2-carboxamide], for which the figures for the IC50 in assay [1] and in assay [2] were 4.44e-07 M and 0.11 µM, respectively.

Turning to `CCOc1cc(F)ccc1S(=O)(=O)NC(=O)c1cc2c(F)cc(N3CCC3)cc2o1` [Example 208, 6-(Azetidin-1-yl)-N-(2-ethoxy-4-fluoro-phenyl)sulfonyl-4-fluoro-benzofuran-2-carboxamide], the IC50 in assay [1] was found to be 7.78e-08 M; in assay [2], 0.0454 µM.

Take `CCOc1ccc(F)cc1S(=O)(=O)NC(=O)c1cc2c(F)cc(N3CCC3)cc2o1` [Example 210, 6-(Azetidin-1-yl)-N-(2-ethoxy-5-fluoro-phenyl)sulfonyl-4-fluoro-benzofuran-2-carboxamide]: the IC50 was 1.13e-07 M in assay [1] and 0.0526 µM in assay [2].

`CCOc1ccc(Oc2ccccc2)cc1S(=O)(=O)NC(=O)c1cc2c(F)cc(N3CCC3)cc2o1` [Example 211, 6-(Azetidin-1-yl)-N-(2-ethoxy-5-phenoxy-phenyl)sulfonyl-4-fluoro-benzofuran-2-carboxamide]: the IC50 in assay [1] was 2.44e-07 M; in assay [2], 0.00758 µM.

As to `CCOc1ccc(OC(F)(F)F)cc1S(=O)(=O)NC(=O)c1cc2c(F)cc(N3CCC3)cc2o1` [Example 212, 6-(Azetidin-1-yl)-N-[2-ethoxy-5-(trifluoromethoxy)phenyl]sulfonyl-4-fluoro-benzofuran-2-carboxamide], the IC50 in assay [1] turned out to be 1.59e-07 M; in assay [2], 0.0364 µM.

For `CC1(C)CCN1c1cc(F)c2cc(C(=O)NS(=O)(=O)c3ccccc3-c3ccccc3)oc2c1` [Example 217, 6-(2,2-Dimethylazetidin-1-yl)-4-fluoro-N-(2-phenylphenyl)sulfonyl-benzofuran-2-carboxamide], the IC50 in assay [1] came out at 1.05e-05 M. Also, in the assay on MDA-MB-436 cells, the EC50 is above 2e-05 M.

As for `CC(C)c1ccc(OC2CCC2)c(S(=O)(=O)NC(=O)c2cc3c(F)cc(N4CCC4)cc3o2)c1` [Example 230, 6-(Azetidin-1-yl)-N-[(2-cyclobutoxy-5-isopropylphenyl)sulfonyl]-4-fluorobenzofuran-2-carboxamide], the IC50 came to 8.72e-08 M in assay [1] and 0.00771 µM in assay [2].
